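Dose response: 5 concentrations. Exposure: 48 h. Format: 96-well plates. Endpoint: linear interpolation; highest concentration if not reached. TGI marks complete inhibition of growth.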
Experiments:
Assay in all cases: NCI tumour cell line growth inhibition, 48 h
[1] = tested on: IGROV1 ovarian
[2] = tested on: K-562 leukemia
[3] = tested on: NCI-H522 lung
[4] = tested on: RPMI-8226 leukemia
[5] = tested on: RXF 393 renal
[6] = tested on: SK-MEL-2 melanoma
[7] = tested on: SK-OV-3 ovarian
[8] = tested on: XF 498 CNS
[9] = tested on: SNB-19 CNS
[10] = tested on: EKVX NSCLC
[11] = tested on: M19-MEL melanoma
[12] = tested on: OVCAR-4 ovarian
[13] = tested on: MALME-3M melanoma
[14] = tested on: MCF7 breast
[15] = tested on: HCT-15 colon
[16] = tested on: COLO 205 colon
[17] = tested on: HOP-62 NSCLC
[18] = tested on: UACC-257 melanoma
[19] = tested on: P388 leukemia
[20] = tested on: KM12 colon
[21] = tested on: DMS 273 small cell lung
[22] = tested on: UO-31 renal
[23] = tested on: SF-539 CNS
[24] = tested on: SN12C renal
[25] = tested on: SN12K1 renal
[26] = tested on: HCT-116 colon
[27] = tested on: NCI-H226 lung
[28] = tested on: SW-620 colon
[29] = tested on: HT29 colon
[30] = tested on: SF-268 CNS
[31] = tested on: SF-295 CNS
[32] = tested on: NCI-H460 lung
[33] = tested on: HL-60(TB) leukemia
[34] = tested on: CCRF-CEM leukemia
[35] = tested on: A549 NSCLC
[36] = tested on: SNB-75 CNS
[37] = tested on: HOP-92 NSCLC
[38] = tested on: MOLT-4 leukemia
[39] = tested on: KM20L2 colon
[40] = tested on: SK-MEL-28 melanoma
[41] = tested on: OVCAR-3 ovarian
[42] = tested on: LOX IMVI melanoma
[43] = tested on: SK-MEL-5 melanoma
[44] = tested on: A498 renal
[45] = tested on: HCC-2998 colon
[46] = tested on: DMS 114 small cell lung
[47] = tested on: DLD-1 colon
[48] = tested on: U251 CNS
[49] = tested on: NCI/ADR-RES ovarian
[50] = tested on: OVCAR-5 ovarian
[51] = tested on: HOP-18 NSCLC
[52] = tested on: OVCAR-8 ovarian
[53] = tested on: NCI-H23 lung
[54] = tested on: SNB-78 CNS
[55] = tested on: UACC-62 melanoma
[56] = tested on: P388/ADR leukemia
[57] = tested on: CAKI-1 renal
[58] = tested on: RXF-631 renal
[59] = tested on: SR leukemia
[60] = tested on: LXFL 529 NSCLC
[61] = tested on: 786-0 renal
[62] = tested on: ACHN renal
[63] = tested on: M14 melanoma
[64] = tested on: TK-10 renal

COc1cc(-c2ccc(N=Nc3c(S(=O)(=O)O)cc4cc(S(=O)(=O)O)cc(N)c4c3O)c(OC)c2)ccc1N=Nc1c(S(=O)(=O)O)cc2cc(S(=O)(=O)O)cc(N)c2c1O
TGI [1]: > 100 µM
TGI [2]: > 100 µM
TGI [3]: > 100 µM
TGI [4]: > 100 µM
TGI [5]: > 100 µM
TGI [6]: > 100 µM
TGI [7]: > 100 µM
TGI [8]: > 67.9 µM
TGI [9]: > 100 µM
TGI [10]: > 100 µM
TGI [11]: > 100 µM
TGI [12]: > 100 µM
TGI [13]: > 100 µM
TGI [14]: > 100 µM
TGI [15]: > 100 µM
TGI [16]: > 100 µM
TGI [17]: > 100 µM
TGI [18]: > 100 µM
TGI [19]: > 100 µM
TGI [20]: > 100 µM
TGI [21]: > 100 µM
TGI [22]: > 100 µM
TGI [23]: > 100 µM
TGI [24]: > 100 µM
TGI [25]: > 100 µM
TGI [26]: > 100 µM
TGI [27]: > 100 µM
TGI [28]: > 100 µM
TGI [29]: > 100 µM
TGI [30]: > 100 µM
TGI [31]: > 100 µM
TGI [32]: > 100 µM
TGI [33]: > 100 µM
TGI [34]: > 100 µM
TGI [35]: > 100 µM
TGI [36]: > 100 µM
TGI [37]: > 77.4 µM
TGI [38]: > 100 µM
TGI [39]: > 100 µM
TGI [40]: > 100 µM
TGI [41]: > 100 µM
TGI [42]: > 100 µM
TGI [43]: > 100 µM
TGI [44]: > 100 µM
TGI [45]: > 100 µM
TGI [46]: > 100 µM
TGI [47]: > 100 µM
TGI [48]: > 100 µM
TGI [49]: > 100 µM
TGI [50]: > 100 µM
TGI [51]: > 100 µM
TGI [52]: > 100 µM
TGI [53]: > 100 µM
TGI [54]: > 100 µM

CCCCc1[nH]ccc2c(C)c3nc4ccccc4c3cc12
TGI [1]: 16.9 µM
TGI [2]: 5.98 µM
TGI [3]: 6.75 µM
TGI [4]: 6.77 µM
TGI [5]: 7.61 µM
TGI [6]: 11.4 µM
TGI [7]: 16.8 µM
TGI [9]: 11.6 µM
TGI [10]: 13.6 µM
TGI [11]: 10.9 µM
TGI [12]: 13.5 µM
TGI [13]: 14.5 µM
TGI [14]: 10.8 µM
TGI [15]: 8.49 µM
TGI [16]: 3.39 µM
TGI [17]: 14.5 µM
TGI [18]: 5.13 µM
TGI [19]: 4.13 µM
TGI [20]: 12.7 µM
TGI [21]: 2.4 µM
TGI [22]: 10.9 µM
TGI [23]: 7.45 µM
TGI [24]: 19.4 µM
TGI [25]: 5.75 µM
TGI [26]: 4.76 µM
TGI [55]: 8.75 µM
TGI [27]: 24.6 µM
TGI [28]: 6.78 µM
TGI [29]: 8.85 µM
TGI [30]: 21.6 µM
TGI [31]: 8.41 µM
TGI [32]: 5.03 µM
TGI [33]: 3.45 µM
TGI [34]: 10.6 µM
TGI [35]: 14.1 µM
TGI [36]: 15.8 µM
TGI [37]: 12.4 µM
TGI [38]: 4.72 µM
TGI [56]: 7.29 µM
TGI [57]: 6.33 µM
TGI [39]: 10.8 µM
TGI [40]: 11.8 µM
TGI [41]: 10.8 µM
TGI [42]: 4.3 µM
TGI [43]: 6.52 µM
TGI [44]: 13.4 µM
TGI [45]: 8.19 µM
TGI [46]: 4.14 µM
TGI [47]: 13.3 µM
TGI [48]: 12.8 µM
TGI [49]: 5.87 µM
TGI [50]: 17.2 µM
TGI [51]: 6.83 µM
TGI [52]: 9.49 µM
TGI [53]: 16 µM
TGI [54]: 21.3 µM

Brc1ccc2c(C3CN[C@@H](c4c[nH]c5cc(Br)ccc45)CN3)c[nH]c2c1 (stereo partly drawn)
TGI [1]: 23.6 µM
TGI [2]: 9.4 µM
TGI [3]: 5.6 µM
TGI [4]: 5.16 µM
TGI [5]: 4.41 µM
TGI [6]: 10.9 µM
TGI [7]: 16.6 µM
TGI [8]: 18.7 µM
TGI [9]: 22.4 µM
TGI [10]: 21.9 µM
TGI [11]: 19.4 µM
TGI [12]: 13.6 µM
TGI [13]: 26.5 µM
TGI [58]: 12.9 µM
TGI [59]: 3.08 µM
TGI [60]: 6.86 µM
TGI [15]: 13.6 µM
TGI [16]: 3.49 µM
TGI [17]: 16.2 µM
TGI [18]: 23.4 µM
TGI [20]: 3.47 µM
TGI [21]: 5.13 µM
TGI [22]: 18.1 µM
TGI [23]: 12.9 µM
TGI [24]: 17.7 µM
TGI [26]: 3.55 µM
TGI [55]: 17.5 µM
TGI [27]: 7.96 µM
TGI [28]: 9.05 µM
TGI [29]: 9.52 µM
TGI [30]: 19.1 µM
TGI [31]: 12.4 µM
TGI [61]: 9.91 µM
TGI [32]: 3.85 µM
TGI [33]: 7.72 µM
TGI [34]: 11.7 µM
TGI [35]: 9.02 µM
TGI [36]: 31.7 µM
TGI [37]: 9.29 µM
TGI [62]: 12.6 µM
TGI [38]: 11 µM
TGI [57]: 25.9 µM
TGI [39]: 4.96 µM
TGI [40]: 23.8 µM
TGI [41]: 19.7 µM
TGI [42]: 9.03 µM
TGI [63]: 9.6 µM
TGI [43]: 14.3 µM
TGI [44]: 9.36 µM
TGI [64]: 20.8 µM
TGI [45]: 5.43 µM
TGI [46]: 5.14 µM
TGI [47]: 12.8 µM
TGI [48]: 18.5 µM
TGI [50]: 10.1 µM
TGI [51]: 24.6 µM
TGI [52]: 15.9 µM
TGI [53]: 7.13 µM
TGI [54]: 22.7 µM

COc1ccc(NCc2cc(OC)cc(OC)c2)cc1
TGI [1]: > 100 µM
TGI [2]: > 84.6 µM
TGI [3]: 56.7 µM
TGI [4]: 61.6 µM
TGI [5]: 69.8 µM
TGI [6]: > 82.7 µM
TGI [7]: > 95.5 µM
TGI [8]: > 76.8 µM
TGI [9]: > 100 µM
TGI [10]: > 100 µM
TGI [11]: > 100 µM
TGI [12]: 82.1 µM
TGI [13]: > 100 µM
TGI [58]: > 100 µM
TGI [59]: > 100 µM
TGI [60]: > 100 µM
TGI [15]: > 100 µM
TGI [16]: 27.4 µM
TGI [17]: > 100 µM
TGI [18]: > 100 µM
TGI [20]: > 64.9 µM
TGI [21]: > 70.4 µM
TGI [22]: > 91.8 µM
TGI [23]: 54.2 µM
TGI [24]: > 100 µM
TGI [26]: 57.3 µM
TGI [55]: > 100 µM
TGI [27]: > 100 µM
TGI [28]: > 100 µM
TGI [29]: > 100 µM
TGI [30]: > 91 µM
TGI [31]: > 100 µM
TGI [61]: > 100 µM
TGI [32]: > 84.6 µM
TGI [33]: 32.9 µM
TGI [34]: > 92.6 µM
TGI [35]: > 100 µM
TGI [36]: > 100 µM
TGI [37]: > 100 µM
TGI [62]: > 100 µM
TGI [38]: > 100 µM
TGI [57]: > 100 µM
TGI [39]: 38.1 µM
TGI [40]: > 100 µM
TGI [41]: > 59.3 µM
TGI [42]: > 100 µM
TGI [63]: > 100 µM
TGI [43]: > 100 µM
TGI [44]: > 100 µM
TGI [64]: > 100 µM
TGI [45]: 57.9 µM
TGI [46]: > 100 µM
TGI [47]: > 100 µM
TGI [48]: > 85 µM
TGI [50]: 77.7 µM
TGI [51]: > 100 µM
TGI [52]: > 100 µM
TGI [53]: > 95.5 µM
TGI [54]: 61.8 µM

From PubChem BioAssay (NCI)
